In DBAASP one finds MIC data, which are given here for twelve molecules.

In brackets after ≈: the same amount, converted by molar mass. Some results are limits rather than exact numbers.

Among the test systems are Saccharomyces cerevisiae; Micrococcus luteus; Pseudomonas aeruginosa; Escherichia coli B; Bacillus subtilis 168; Staphylococcus aureus.
Test in all cases: ≥ marks a high value that may be exact or a test limit, other limits are often not marked, values filed in µg/mL are converted to µM
Experiment [1] deals with Pseudomonas aeruginosa H1001.
For experiment [2], the system named is Staphylococcus aureus NCTC 10788.
Experiment [3] deals with Candida albicans NCPF 1467.
The subject of experiment [4] is Escherichia coli NCTC 10418.
Experiment [5] concerns Micrococcus luteus ATCC 4698.
The test system of experiment [6] is Staphylococcus aureus ATCC 25923.
For experiment [7], the system named is Escherichia coli ATCC 25922.
The test system of experiment [8] is Pseudomonas aeruginosa ATCC 15692.
The subject of experiment [9] is Micrococcus luteus CCM 144.
The subject of experiment [10] is Candida albicans F7-39/IDE99.
Experiment [11] has as its system Salmonella enterica subsp. enterica serovar Typhimurium C77-31.
Experiment [12] deals with Salmonella enterica subsp. enterica serovar Pullorum C79-13.
The test system of experiment [13] is Staphylococcus epidermidis ATCC 12228.
For experiment [14], the system named is Staphylococcus aureus ATCC 29213.
In experiment [15] the test system is Enterococcus faecalis ATCC 29212.

As a reminder, the MIC is the least concentration at which growth counts as inhibited. Higher therefore signals a less susceptible organism. In turn, `CC[C@H](C)[C@H](NC(=O)[C@@H](N)Cc1ccccc1)C(=O)N[C@@H](CCCN=C(N)N)C(=O)N[C@@H](Cc1c[nH]c2ccccc12)C(=O)N[C@@H](CCCN=C(N)N)C(=O)N[C@@H](Cc1ccccc1)C(=O)N[C@@H](CCCN=C(N)N)C(=O)N[C@@H](Cc1c[nH]c2ccccc12)C(=O)N[C@@H](Cc1c[nH]c2ccccc12)C(=O)N[C@@H](CCCN=C(N)N)C(=O)N[C@@H](Cc1c[nH]c2ccccc12)C(=O)N[C@@H](CCCN=C(N)N)C(=O)N[C@@H](CCCN=C(N)N)C(N)=O` [FIRWRFRWWRWRR] returned an MIC in experiment [1] of 2.85 µM (≈ 6 µg/mL). In other words, the single-digit micromolar range.
Take `CC[C@H](C)[C@H](NC(=O)CNC(=O)[C@H](CO)NC(=O)[C@H](C)NC(=O)[C@@H](NC(=O)[C@H](Cc1cnc[nH]1)NC(=O)[C@@H]1CCCN1C(=O)[C@@H](NC(=O)[C@H](CC(C)C)NC(=O)[C@H](CO)NC(=O)[C@H](CC(C)C)NC(=O)[C@@H](N)Cc1ccccc1)[C@@H](C)CC)[C@@H](C)CC)C(=O)N[C@@H](C)C(=O)N[C@@H](CO)C(=O)N[C@@H](CC(C)C)C(=O)N[C@H](C(=O)N[C@@H](CCCCN)C(=O)N[C@@H](CC(N)=O)C(=O)N[C@@H](Cc1ccccc1)C(N)=O)C(C)C` [FLSLIPHIASGIASLVKNF]: the values for the MIC in [2], in experiment [3] and in experiment [4] were 5 µM (≈ 10.1 µg/mL), 20 µM (≈ 40.5 µg/mL) and at least 200 µM, respectively.
Molecule `CC[C@H](C)[C@H](NC(=O)[C@H](CO)NC(=O)[C@H](CCCCN)NC(=O)[C@H](CO)NC(=O)[C@H](Cc1cnc[nH]1)NC(=O)[C@H](CCCN=C(N)N)NC(=O)[C@H](Cc1cnc[nH]1)NC(=O)[C@H](CO)NC(=O)[C@H](CCC(N)=O)NC(=O)[C@H](Cc1ccc(O)cc1)NC(=O)[C@H](CC(N)=O)NC(=O)[C@H](CC(N)=O)NC(=O)[C@@H]1CCCN1C(=O)[C@H](CO)NC(=O)CNC(=O)[C@H](Cc1ccccc1)NC(=O)CN)C(=O)N1CCC[C@H]1C(=O)NCC(=O)N[C@@H](CCCN=C(N)N)C(=O)O` [GFGSPNNYQSHRHSKSIPGR] gave an MIC in experiment [5] of at least 75 µM.
Take `CC[C@H](C)[C@H](NC(=O)[C@H](CO)NC(=O)[C@H](CC(N)=O)NC(=O)[C@@H](NC(=O)[C@H](Cc1ccccc1)NC(=O)[C@H](C)NC(=O)[C@H](CO)NC(=O)[C@H](C)NC(=O)[C@H](Cc1ccccc1)NC(=O)[C@H](CC(=O)O)NC(=O)[C@H](CCCCN)NC(=O)[C@H](C)NC(=O)CNC(=O)[C@@H](NC(=O)[C@H](CCCCN)NC(=O)[C@H](CC(C)C)NC(=O)[C@H](CCCCN)NC(=O)[C@H](CCC(=O)O)NC(=O)[C@H](CC(C)C)NC(=O)[C@H](Cc1ccccc1)NC(=O)CN)[C@@H](C)O)C(C)C)C(=O)N[C@@H](CCCCN)C(N)=O` [GFLEKLKTGAKDFASAFVNSIK]: the figures for the MIC in experiment [2], in [3] and in experiment [4] were at least 216 µM, at least 108 µM and at least 54 µM, respectively.
The corresponding values for `CC[C@H](C)[C@H](NC(=O)CNC(=O)[C@@H]1CCCN1C(=O)[C@H](CC(C)C)NC(=O)[C@H](C)NC(=O)[C@H](CC(N)=O)NC(=O)[C@H](CCCCN)NC(=O)[C@@H](NC(=O)[C@@H](NC(=O)[C@H](CO)NC(=O)[C@H](CC(C)C)NC(=O)[C@@H](NC(=O)CN)C(C)C)C(C)C)[C@@H](C)CC)C(=O)N[C@@H](CCSC)C(=O)N[C@@H](CCCN=C(N)N)C(=O)N[C@@H](Cc1ccccc1)C(=O)N[C@H](C(=O)N[C@@H](C)C(N)=O)[C@@H](C)CC` [GVLSVIKNALPGIMRFIA] are 4.21 µM (≈ 8 µg/mL), 4.21 µM (≈ 8 µg/mL) and at least 33.7 µM.
Take `CC[C@H](C)[C@H](NC(=O)[C@@H]1CCCN1C(=O)[C@H](CCC(N)=O)NC(=O)[C@@H](NC(=O)[C@H](CC(C)C)NC(=O)[C@H](CCCCN)NC(=O)[C@@H]1CCCN1C(=O)CNC(=O)[C@H](CC(C)C)NC(=O)[C@H](CCC(N)=O)NC(=O)[C@H](CCSC)NC(=O)[C@H](C)NC(=O)[C@H](CCCCN)NC(=O)[C@H](CCCN=C(N)N)NC(=O)[C@H](CC(C)C)NC(=O)[C@@H](NC(=O)[C@H](CCCCN)NC(=O)CNC(=O)[C@H](Cc1ccccc1)NC(=O)[C@@H](NC(=O)[C@@H]1CCCN1C(=O)[C@H](CC(C)C)NC(=O)[C@H](Cc1c[nH]c2ccccc12)NC(=O)CN)[C@@H](C)O)[C@@H](C)CC)[C@@H](C)CC)C(=O)O` [GWLPTFGKILRKAMQLGPKLIQPI]: the MIC in experiment [6] is 16 µM (≈ 43.3 µg/mL); in experiment [7], 1.41 µM (≈ 3.83 µg/mL); against Saccharomyces cerevisiae, at least 32 µM; in experiment [8], 11.3 µM (≈ 30.6 µg/mL); in the experiment on Micrococcus luteus it was 1 µM (≈ 2.71 µg/mL).
In [1], `CC[C@H](C)[C@H](NC(=O)[C@H](CCCCN)NC(=O)[C@H](Cc1c[nH]c2ccccc12)NC(=O)[C@H](CCCCN)NC(=O)[C@@H](N)CCCCN)C(=O)N[C@H](C(=O)N[C@H](C(=O)N[C@H](C(=O)N[C@@H](CCCCN)C(=O)N[C@@H](Cc1c[nH]c2ccccc12)C(=O)N[C@@H](CCCCN)C(=O)N[C@@H](CCCCN)C(N)=O)[C@@H](C)CC)C(C)C)C(C)C` [KKWKIVVIKWKK] came in with a minimum inhibitory concentration (MIC) of 2.53 µM (≈ 4 µg/mL).
As for `CC[C@H](C)[C@H](NC(=O)[C@H](C)NC(=O)[C@H](CCCCN)NC(=O)[C@H](Cc1c[nH]c2ccccc12)NC(=O)[C@H](CC(N)=O)NC(=O)[C@@H](N)CCCCN)C(=O)N[C@@H](CC(C)C)C(=O)N[C@@H](CCCCN)C(=O)N[C@@H](Cc1cnc[nH]1)C(=O)N[C@H](C(=O)N[C@H](C(=O)N[C@@H](CCCCN)C(N)=O)[C@@H](C)CC)[C@@H](C)CC` [KNWKAILKHIIK], the MIC came out at 65 µM (≈ 96.9 µg/mL) against Pseudomonas aeruginosa; 5 µM (≈ 7.45 µg/mL) in experiment [9]; 8 µM (≈ 11.9 µg/mL) in [10]; 7.8 µM (≈ 11.6 µg/mL) against Escherichia coli B; 2.5 µM (≈ 3.73 µg/mL) with Bacillus subtilis 168; 65 µM (≈ 96.9 µg/mL) in the experiment on Staphylococcus aureus.
As to `NCCCC[C@H](NC(=O)[C@H](CCCCN)NC(=O)[C@H](Cc1c[nH]c2ccccc12)NC(=O)[C@H](CCCCN)NC(=O)[C@H](Cc1c[nH]c2ccccc12)NC(=O)[C@H](Cc1c[nH]c2ccccc12)NC(=O)[C@@H](N)CCCCN)C(N)=O` [KWWKWKK], the MIC in [1] was at least 229 µM.
On to `CC[C@H](C)[C@H](NC(=O)[C@H](C)NC(=O)CNC(=O)[C@H](Cc1c[nH]c2ccccc12)NC(=O)[C@H](CC(N)=O)NC(=O)[C@@H](N)CC(C)C)C(=O)N[C@@H](CC(C)C)C(=O)N[C@@H](CCCCN)C(=O)N[C@@H](Cc1cnc[nH]1)C(=O)N[C@H](C(=O)N[C@H](C(=O)N[C@@H](CCCCN)C(N)=O)[C@@H](C)CC)[C@@H](C)CC` [LNWGAILKHIIK], for which the minimal inhibitory concentration (MIC) in the experiment with Pseudomonas aeruginosa is 51.7 µM (≈ 72.6 µg/mL); in experiment [9] it was 1.5 µM (≈ 2.11 µg/mL); in experiment [10], 7.3 µM (≈ 10.3 µg/mL); in the experiment on Escherichia coli B, 3.7 µM (≈ 5.2 µg/mL); against Bacillus subtilis 168 it was 1.3 µM (≈ 1.83 µg/mL); in the experiment on Staphylococcus aureus, 10.6 µM (≈ 14.9 µg/mL).
For `CC[C@H](C)[C@H](NC(=O)[C@H](CCCN=C(N)N)NC(=O)[C@H](CCCN=C(N)N)NC(=O)[C@@H]1CCCN1C(=O)[C@H](Cc1c[nH]c2ccccc12)NC(=O)[C@H](CCCN=C(N)N)NC(=O)[C@@H]1CCCN1C(=O)[C@H](CCCN=C(N)N)NC(=O)[C@@H]1CCCN1C(=O)[C@H](CC(C)C)NC(=O)[C@H](Cc1ccc(O)cc1)NC(=O)[C@@H]1CCCN1C(=O)[C@@H]1CCCN1C(=O)[C@H](CCCCN)NC(=O)[C@H](CC(=O)O)NC(=O)[C@@H](N)C(C)C)C(=O)N[C@@H](Cc1ccc(O)cc1)C(=O)N[C@@H](CC(N)=O)C(=O)N[C@@H](CCCN=C(N)N)C(=O)NCC(=O)O` [VDKPPYLPRPRWPRRIYNRG], in [1], the MIC was found to be 0.0591 µM (≈ 0.15 µg/mL). That is a double-digit nanomolar value.
Regarding `NCCCC[C@H](NC(=O)CNC(=O)[C@H](CC(N)=O)NC(=O)[C@H](CCCCN)NC(=O)[C@H](Cc1c[nH]c2ccccc12)NC(=O)[C@H](CCCCN)NC(=O)[C@H](Cc1c[nH]c2ccccc12)NC(=O)[C@H](CCCCN)NC(=O)[C@@H](N)Cc1c[nH]c2ccccc12)C(=O)N[C@@H](Cc1c[nH]c2ccccc12)C(=O)N[C@@H](CCCCN)C(=O)N[C@@H](Cc1c[nH]c2ccccc12)C(=O)N[C@@H](CCCCN)C(=O)N[C@@H](Cc1c[nH]c2ccccc12)C(=O)O` [WKWKWKNGKWKWKW], the MIC in experiment [7] worked out at 2 µM (≈ 4.15 µg/mL); in experiment [11] it was 8 µM (≈ 16.6 µg/mL); in experiment [12], 4 µM (≈ 8.3 µg/mL); in experiment [13], 32 µM (≈ 66.4 µg/mL); in experiment [14], 4 µM (≈ 8.3 µg/mL); in [15] it was 16 µM (≈ 33.2 µg/mL).
